How the values were obtained:
[1] = particle size of crystallized bulk aripiprazole; type: physicochemical
[2] = at room temperature; cited from earlier work

- particle size (95% of particles) ([1]; Example 1: impinging jet crystallization with sonication, 2° C. water anti-solvent): < 100 microns
- particle size (95% of particles) ([1]; Example 2: impinging jet crystallization without sonication, 30° C. water anti-solvent): < 100 microns
- particle size ([1]; batch crystallization (comparison)): 100 microns
Compound: O=C1CCc2ccc(OCCCCN3CCN(c4cccc(Cl)c4Cl)CC3)cc2N1 [Aripiprazole, aripiprazole]
- aqueous solubility [2]: < 1 µg/mL

Reference: US9066848B2, “Process for making sterile aripiprazole of desired mean particle size” (Bristol-Myers Squibb Company, priority 2003, dated 2015)
